Results from patent US10597388B2, “Pyridazinone herbicides” (FMC CORPORATION, priority 2014, dated 2020).

Legend:
Experiment in all cases: Test D controlled growth environment herbicide test, pre- and postemergence
Type in all cases: in vivo
[1] = system: blackgrass (Alopecurus myosuroides)
Procedure, shortened: (§1)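 Pre-emergence: seeds sown in silt loam soil were sprayed with compound in a non-phytotoxic solvent mix containing surfactant. Post-emergence: plants at 2 to 18 cm (1- to 4-leaf stage) in peat moss/vermiculite medium got the same formulation. Visual 0–100 rating versus controls after 14 to 21 d.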

[2] = system: galium (catchweed bedstraw, Galium aparine)
Procedure, shortened: as §1

[3] = system: chamomile (scentless chamomile, Matricaria inodora); conditions: Preemergence
Procedure, shortened: as §1

[4] = system: deadnettle (henbit deadnettle, Lamium amplexicaule)
Procedure, shortened: as §1

[5] = system: chickweed (common chickweed, Stellaria media)
Procedure, shortened: as §1

[6] = system: barley, spring (spring barley, Hordeum vulgare)
Procedure, shortened: as §1

[7] = system: wheat, spring (spring wheat, Triticum aestivum)
Procedure, shortened: as §1

[8] = system: field poppy (Papaver rhoeas)
Procedure, shortened: as §1

[9] = system: canarygrass (Phalaris minor)
Procedure, shortened: as §1

[10] = system: bromegrass, downy (downy bromegrass, Bromus tectorum)
Procedure, shortened: as §1

[11] = system: foxtail, green (green foxtail, Setaria viridis)
Procedure, shortened: as §1

[12] = system: kochia (Kochia scoparia)
Procedure, shortened: as §1

[13] = system: oilseed rape (Brassica napus)
Procedure, shortened: as §1

[14] = system: lambsquarters (Chenopodium album)
Procedure, shortened: as §1

[15] = Postemergence, 31 g ai/ha, scale 0 to 100 (0 no effect, 100 complete control)
[16] = Postemergence, 125 g ai/ha, visual rating on scale 0 (no effect) to 100 (complete control), 14 to 21 d
[17] = Postemergence, 250 g ai/ha, scale 0 to 100 (0 no effect, 100 complete control)
[18] = Preemergence, 62 g ai/ha, scale 0 to 100 (0 no effect, 100 complete control)
[19] = Preemergence, 125 g ai/ha, scale 0 to 100 (0 no effect, 100 complete control)
[20] = Preemergence, 250 g ai/ha, scale 0 to 100, 0 no effect, 100 complete control
[21] = postemergence, 62 g ai/ha, scale 0 to 100, 0 no effect, 100 complete control

## CCc1sc2ccc(C)cc2c1-c1c(O)c(C)nn(C)c1=O [Compound 47]
[1]; [15]
  Blackgrass plant response rating: 25
[1]; [16]
  Plant response rating, Blackgrass: 35
[1]; [17]
  Plant response rating, Blackgrass: 65
[1]; Preemergence, 31 g ai/ha
  Plant response rating (scale of 0 to 100), Blackgrass: 5
[1]; [18]
  Plant response rating, Blackgrass: 20
[1]; [19]
  Plant response rating, Blackgrass: 30
[1]; [20]
  Blackgrass plant response rating: 50
[1]; [21]
  Plant response rating, Blackgrass: 25
[2]; [15]
  Galium plant response rating: 65
[2]; [16]
  Plant response rating, Galium: 75
[2]; [17]
  Plant response rating, Galium: 80
[2]; Preemergence, 31 g ai/ha
  Plant response rating (scale of 0 to 100), Galium: 85
[2]; [18]
  Plant response rating, Galium: 95
[2]; [19]
  Plant response rating, Galium: 100
[2]; [20]
  Plant response rating, Galium: 100
[2]; [21]
  Plant response rating, Galium: 75
[3]; 31 g ai/ha
  Plant response rating (scale of 0 to 100), Chamomile: 80
[3]; 62 g ai/ha, scale 0 to 100 (0 no effect, 100 complete control)
  Plant response rating, Chamomile: 80
[3]; 125 g ai/ha, scale 0 to 100 (0 no effect, 100 complete control)
  Plant response rating, Chamomile: 85
[3]; 250 g ai/ha, scale 0 to 100, 0 no effect, 100 complete control
  Plant response rating, Chamomile: 85
[4]; [15]
  Deadnettle plant response rating: 20
[4]; [16]
  Plant response rating, Deadnettle: 30
[4]; [17]
  Plant response rating, Deadnettle: 30
[4]; Preemergence, 31 g ai/ha
  Plant response rating (scale of 0 to 100), Deadnettle: 0
[4]; [18]
  Plant response rating, Deadnettle: 10
[4]; [19]
  Plant response rating, Deadnettle: 10
[4]; [20]
  Plant response rating, Deadnettle: 65
[4]; [21]
  Plant response rating, Deadnettle: 20
[5]; [15]
  Chickweed plant response rating: 90
[5]; [16]
  Plant response rating, Chickweed: 95
[5]; [17]
  Plant response rating, Chickweed: 100
[5]; Preemergence, 31 g ai/ha
  Plant response rating (scale of 0 to 100), Chickweed: 90
[5]; [18]
  Plant response rating, Chickweed: 95
[5]; [19]
  Plant response rating, Chickweed: 100
[5]; [20]
  Plant response rating, Chickweed: 90
[5]; [21]
  Plant response rating, Chickweed: 95
[6]; [15]
  Barley, Spring plant response rating: 0
[6]; [16]
  Plant response rating, Barley, Spring: 0
[6]; [17]
  Plant response rating, Barley, Spring: 0
[6]; Preemergence, 31 g ai/ha
  Plant response rating (scale of 0 to 100), Barley, Spring: 0
[6]; [18]
  Plant response rating, Barley, Spring: 5
[6]; [19]
  Plant response rating, Barley, Spring: 15
[6]; [20]
  Barley, Spring plant response rating: 15
[6]; [21]
  Plant response rating, Barley, Spring: 0
[7]; [15]
  Wheat, Spring plant response rating: 10
[7]; [16]
  Plant response rating, Wheat, Spring: 15
[7]; [17]
  Plant response rating, Wheat, Spring: 15
[7]; Preemergence, 31 g ai/ha
  Plant response rating (scale of 0 to 100), Wheat, Spring: 5
[7]; [18]
  Plant response rating, Wheat, Spring: 5
[7]; [19]
  Plant response rating, Wheat, Spring: 15
[7]; [20]
  Plant response rating, Wheat, Spring: 15
[7]; [21]
  Plant response rating, Wheat, Spring: 10
[8]; [15]
  Field Poppy plant response rating: 80
[8]; [16]
  Plant response rating, Field Poppy: 100
[8]; [17]
  Plant response rating, Field Poppy: 100
[8]; Preemergence, 31 g ai/ha
  Plant response rating (scale of 0 to 100), Field Poppy: 60
[8]; [18]
  Plant response rating, Field Poppy: 100
[8]; [19]
  Plant response rating, Field Poppy: 100
[8]; [20]
  Plant response rating, Field Poppy: 100
[8]; [21]
  Plant response rating, Field Poppy: 100
[9]; [15]
  Canarygrass plant response rating: 0
[9]; [16]
  Plant response rating, Canarygrass: 0
[9]; [17]
  Plant response rating, Canarygrass: 0
[9]; Preemergence, 31 g ai/ha
  Plant response rating (scale of 0 to 100), Canarygrass: 0
[9]; [18]
  Plant response rating, Canarygrass: 0
[9]; [19]
  Plant response rating, Canarygrass: 0
[9]; [20]
  Plant response rating, Canarygrass: 5
[9]; [21]
  Plant response rating, Canarygrass: 0
[10]; [15]
  Bromegrass, Downy plant response rating: 5
[10]; [16]
  Plant response rating, Bromegrass, Downy: 5
[10]; [17]
  Plant response rating, Bromegrass, Downy: 5
[10]; Preemergence, 31 g ai/ha
  Plant response rating (scale of 0 to 100), Bromegrass, Downy: 5
[10]; [18]
  Plant response rating, Bromegrass, Downy: 10
[10]; [19]
  Plant response rating, Bromegrass, Downy: 15
[10]; [20]
  Plant response rating, Bromegrass, Downy: 15
[10]; [21]
  Plant response rating, Bromegrass, Downy: 0
[11]; [15]
  Foxtail, Green plant response rating: 50
[11]; [16]
  Plant response rating, Foxtail, Green: 70
[11]; [17]
  Plant response rating, Foxtail, Green: 80
[11]; Preemergence, 31 g ai/ha
  Plant response rating (scale of 0 to 100), Foxtail, Green: 0
[11]; [18]
  Plant response rating, Foxtail, Green: 25
[11]; [19]
  Plant response rating, Foxtail, Green: 60
[11]; [20]
  Plant response rating, Foxtail, Green: 100
[11]; [21]
  Plant response rating, Foxtail, Green: 60
[12]; [15]
  Kochia plant response rating: 45
[12]; [16]
  Plant response rating, Kochia: 95
[12]; [17]
  Plant response rating, Kochia: 100
[12]; Preemergence, 31 g ai/ha
  Plant response rating (scale of 0 to 100), Kochia: 10
[12]; [18]
  Plant response rating, Kochia: 10
[12]; [19]
  Plant response rating, Kochia: 35
[12]; [20]
  Plant response rating, Kochia: 40
[12]; [21]
  Plant response rating, Kochia: 70
[13]; [15]
  Oilseed Rape plant response rating: 20
[13]; [16]
  Plant response rating, Oilseed Rape: 55
[13]; [17]
  Plant response rating, Oilseed Rape: 70
[13]; Preemergence, 31 g ai/ha
  Plant response rating (scale of 0 to 100), Oilseed Rape: 0
[13]; [18]
  Plant response rating, Oilseed Rape: 0
[13]; [19]
  Plant response rating, Oilseed Rape: 10
[13]; [20]
  Plant response rating, Oilseed Rape: 15
[13]; [21]
  Plant response rating, Oilseed Rape: 20
[14]; [15]
  Lambsquarters plant response rating: 45
[14]; [16]
  Plant response rating, Lambsquarters: 70
[14]; [17]
  Plant response rating, Lambsquarters: 70
[14]; Preemergence, 31 g ai/ha
  Plant response rating (scale of 0 to 100), Lambsquarters: 100
[14]; [18]
  Plant response rating, Lambsquarters: 100
[14]; [19]
  Plant response rating, Lambsquarters: 100
[14]; [20]
  Plant response rating, Lambsquarters: 100
[14]; [21]
  Plant response rating, Lambsquarters: 50
